Several values for one entry are separate records, joined by “and”; a condition that tells them apart may be missing. Identical values can stand only once.
Tested on: 885512-296-R-J2-PDC complex spheroid viability
Test: Anticancer human tumor 885512-296-R-J2-PDC patient-derived breast carcinoma cell line growth inhibition [GQUAD]
Conditions: for viability, T/C: stronger effect = lower value; active = viability on the fitted dose curve at most 10% of control; inactive = the rest
Source text: DNA G-quadruplex Stabilizer Agents in Combinations in Complex Spheroids
A high-throughput screen of multi-cell type tumor spheroids was designed to identify active combinations of DNA G-quadruplex stabilizer agents and targeted small molecules. Complex spheroids include a stromal component modeled by human endothelial cells (HUVEC) and fibroblasts modeled by human mesenchymal stem cells (MSCs). The concentration ranges selected for each drug and investigational agent were based upon clinically achievable concentrations if the clinical Cmax of the agent was known.
Compounds. The drugs and investigational agents: pidnarulex (CX-5461; NSC782164), APTO-253 (NSC789042), BRACO-19 (NSC847499), peposertib (NSC802822), ceralasertib (NSC780249), elimusertib (NSC800525), camonsertib (NSC841442), AZD-1390 (NSC803789), olaparib (NSC753686), talazoparib (NSC767125), ART-558 (NSC835418), sotorasib (NSC818433), MRTX-1133 (NSC836407), SN-38 (NSC673596), topotecan (NSC609699), etoposide (NSC141540), doxorubicin (NSC123127), gemcitabine (NSC613327), 5-fluorouracil (NSC19893), paclitaxel (NSC125973), vemurafenib (NSC761431), panobinostat (NSC761190), R-306465 (JNJ-16241199; NSC773264), adavosertib (NSC754352), TP-3654 (NSC805149), carboplatin (NSC241240), KSQ-4279 (NSC840948), and staurosporine (NSC755774) were obtained from the National Cancer Institute (NCI) Developmental Therapeutics Program Chemical Repository (34). The FDA-approved anticancer drug set is available from the NCI Developmental Therapeutics Program. […] The stock solutions were prepared in dimethyl sulfoxide (DMSO, Sigma-Aldrich, St. Louis, MO, cat. D2650) at 800-fold the tested concentration and stored at -70 degrees C prior to their use. All drugs and investigational agents were tested over a range starting from a high concentration at or near the clinical Cmax and decreasing in half-log increments. If the clinical Cmax for an agent had not been determined, the highest concentration tested was 10 microM.
2.3 Cell Culture. All cells were maintained in an incubator at 37 degrees C and 5% CO2 with 95% humidity. The PDC lines were cultured according to standard operating procedures established by the NCI PDMR. All PDCs were thawed and cultured in Matrigel-coated flasks prepared with a working solution of 1X Ham's F-12 nutrient mix, without supplementation (Invitrogen, cat. 11765054), 100 U/mL penicillin-streptomycin (Invitrogen, cat. 15140122), and 2.5% Matrigel (Corning Inc., cat. 354248) for the first three passages. The 857933-349-R-J2-PDC line was cultured in 6C/Colon 1B media, which includes advanced DMEM/F-12 (Thermo Fisher Scientific, cat. 12634028), 10 mM HEPES (Thermo Fisher Scientific, cat. 15630080), 1X GlutaMAX supplement (Thermo Fisher Scientific, cat. 35050061), 0.1 mg/mL primocin (InvivoGen, cat. ant-pm-2), 10% defined fetal bovine serum, heat inactivated (HyClone Laboratories Inc., cat. SH30070.03HI), 50% L-WRN conditioned media (ATCC, cat. CRL-3276), 1.25 mM N-Acetyl-L-cysteine (Sigma-Aldrich, cat. A9165), 10 mM nicotinamide (Sigma-Aldrich, cat. N0636), 1X B-27 supplement (Thermo Fisher Scientific, cat. 17504044), 1X N-2 supplement (Thermo Fisher Scientific, cat. 17502048), 10 microM Y-27632 dihydrochloride (Tocris Bioscience, cat. 1254), and 50 ng/mL human EGF recombinant protein (Thermo Fisher Scientific, cat. PHG0311). The 485176-168-R4-J1-PDC line was cultured in Panc media, which includes all 6C/Colon 1B media components plus 100 ng/mL human FGF-10 (Thermo Fisher Scientific, cat. 100-26), 500 nM SB-431542 (Selleckchem, cat. S1067), and gastrin (Tocris, cat. 3006).
[…]

[1] = curve of first compound, second compound 0.0316 µM
[2] = curve of first compound, second compound 0.1 µM
[3] = curve of first compound, second compound 0.316 µM
[4] = curve of first compound, second compound 1 µM
[5] = curve of first compound, second compound 3.16 µM
[6] = curve of first compound, second compound 10 µM
[7] = second compound 0.0316 µM, first compound 0.0316 µM
[8] = second compound 0.0316 µM, first compound 0.316 µM
[9] = second compound 0.1 µM, first compound 0.0316 µM
[10] = second compound 0.1 µM, first compound 0.316 µM
[11] = second compound 0.316 µM, first compound 0.0316 µM
[12] = second compound 0.316 µM, first compound 0.316 µM
[13] = second compound 1 µM, first compound 0.0316 µM
[14] = second compound 1 µM, first compound 0.316 µM
[15] = second compound 3.16 µM, first compound 0.0316 µM
[16] = second compound 3.16 µM, first compound 0.316 µM
[17] = second compound 10 µM, first compound 0.0316 µM
[18] = second compound 10 µM, first compound 0.316 µM
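Also: spheroids exposed to the compounds for one week.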
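For viability, T/C in this document: percent of tumor spheroid viability relative to DMSO vehicle control wells.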

Cc1cnc(CNC(=O)c2c(=O)c3ccc(N4CCCN(C)CC4)nc3n3c2sc2ccccc23)cn1
inactive: viability, T/C (compound 0.0316 µM) 86.1% [middle of 12 runs] | viability, T/C (compound 0.316 µM) 28.4% [middle of 12 runs] | viability, T/C (compound 1 µM) 26.3% [middle of 12 runs] | viability, T/C (compound 3.16 µM) 27% [middle of 12 runs]
0.17% [middle of 9 runs]: viability, T/C (compound 10 µM)
166 nM [middle of 12 runs]: IC50 (compound alone, run of 04/16/2024)

O=C(c1cc(Cc2n[nH]c(=O)c3ccccc23)ccc1F)N1CCN(C(=O)C2CC2)CC1 + Cc1cnc(CNC(=O)c2c(=O)c3ccc(N4CCCN(C)CC4)nc3n3c2sc2ccccc23)cn1
2560 nM: IC50 [1]
inactive: viability, T/C [7] 78.3% | viability, T/C (second compound 0.0316 µM, first compound 0.1 µM) 69.4% | viability, T/C [8] 95.4% | viability, T/C (second compound 0.0316 µM, first compound 1 µM) 83.6% | viability, T/C (second compound 0.0316 µM, first compound 3.16 µM) 42.9% | viability, T/C (second compound 0.0316 µM, first compound 10 µM) 23.8% | viability, T/C [9] 57.4% | viability, T/C (second compound 0.1 µM, first compound 0.1 µM) 55.5% | viability, T/C [10] 53.2% | viability, T/C (second compound 0.1 µM, first compound 1 µM) 46.8% | viability, T/C (second compound 0.1 µM, first compound 3.16 µM) 35.4% | viability, T/C (second compound 0.1 µM, first compound 10 µM) 22.5% | viability, T/C [11] 28.4% | viability, T/C (second compound 0.316 µM, first compound 0.1 µM) 26.7% | viability, T/C [12] 25.7% | viability, T/C (second compound 0.316 µM, first compound 1 µM) 17.6% | viability, T/C (second compound 0.316 µM, first compound 3.16 µM) 10.7% | viability, T/C (second compound 0.316 µM, first compound 10 µM) 15.5% | viability, T/C [13] 23.4% | viability, T/C (second compound 1 µM, first compound 0.1 µM) 22.8% | viability, T/C [14] 25.7% | viability, T/C (second compound 1 µM, first compound 1 µM) 21% | viability, T/C (second compound 1 µM, first compound 3.16 µM) 18% | viability, T/C (second compound 1 µM, first compound 10 µM) 18.4% | viability, T/C [15] 25% | viability, T/C (second compound 3.16 µM, first compound 0.1 µM) 26.6% | viability, T/C [16] 27% | viability, T/C (second compound 3.16 µM, first compound 1 µM) 24.5% | viability, T/C (second compound 3.16 µM, first compound 3.16 µM) 23% | viability, T/C (second compound 3.16 µM, first compound 10 µM) 8.85%
< 31.6 nM: IC50 [3] | IC50 [4] | IC50 [5] | IC50 [6]
551 nM: IC50 [2]
active: viability, T/C [17] 0.44% | viability, T/C (second compound 10 µM, first compound 0.1 µM) 0.21% | viability, T/C [18] 0.23% | viability, T/C (second compound 10 µM, first compound 1 µM) 0.19% | viability, T/C (second compound 10 µM, first compound 3.16 µM) 0.23% | viability, T/C (second compound 10 µM, first compound 10 µM) 0.19%

CC1COCCN1c1cc(C2(S(C)(=N)=O)CC2)nc(-c2ccnc3[nH]ccc23)n1 (configuration not stated)
865 nM and 752 nM and 652 nM: IC50 (curve of compound)
inactive: viability, T/C (compound 0.0316 µM) 103% (2×) and 99.8% | viability, T/C (compound 0.1 µM) 106% and 90.2% and 88.9% | viability, T/C (compound 0.316 µM) 98.9% and 83.5% and 84.4% | viability, T/C (compound 1 µM) 43% and 40% and 30%
active: viability, T/C (compound 3.16 µM) 5.74% and 6.03% and 4.64% | viability, T/C (compound 10 µM) 4.07% and 4.55% and 4.14%

CC[C@@]1(O)C(=O)OCc2c1cc1n(c2=O)Cc2cc3c(CN(C)C)c(O)ccc3nc2-1 + CN(C)c1ccc(Nc2c3ccc(NC(=O)CCN4CCCC4)cc3nc3cc(NC(=O)CCN4CCCC4)ccc23)cc1
22 nM: IC50 [2]
inactive: viability, T/C (second compound 0.0316 µM, first compound 0.000999 µM) 105% | viability, T/C (second compound 0.0316 µM, first compound 0.00316 µM) 93.1% | viability, T/C (second compound 0.0316 µM, first compound 0.00999 µM) 80.7% | viability, T/C [7] 28.4% | viability, T/C (second compound 0.1 µM, first compound 0.000999 µM) 102% | viability, T/C (second compound 0.1 µM, first compound 0.00316 µM) 95.5% | viability, T/C (second compound 0.1 µM, first compound 0.00999 µM) 83.5% | viability, T/C [9] 34.9% | viability, T/C (second compound 0.316 µM, first compound 0.000999 µM) 95.9% | viability, T/C (second compound 0.316 µM, first compound 0.00316 µM) 103% | viability, T/C (second compound 0.316 µM, first compound 0.00999 µM) 80.7% | viability, T/C [11] 30.2% | viability, T/C (second compound 1 µM, first compound 0.000999 µM) 99% | viability, T/C (second compound 1 µM, first compound 0.00316 µM) 89.1% | viability, T/C (second compound 1 µM, first compound 0.00999 µM) 78.9% | viability, T/C [13] 32.2% | viability, T/C (second compound 3.16 µM, first compound 0.000999 µM) 85.8% | viability, T/C (second compound 3.16 µM, first compound 0.00316 µM) 78.5% | viability, T/C (second compound 3.16 µM, first compound 0.00999 µM) 82.5% | viability, T/C [15] 28.2% | viability, T/C (second compound 10 µM, first compound 0.000999 µM) 20.1% | viability, T/C (second compound 10 µM, first compound 0.00316 µM) 23.4% | viability, T/C (second compound 10 µM, first compound 0.00999 µM) 18.2% | viability, T/C [17] 10.8%
20.2 nM: IC50 [3] | IC50 [4]
< 0.999 nM: IC50 [6]
19.8 nM: IC50 [5]
active: viability, T/C (second compound 0.0316 µM, first compound 0.0999 µM) 6.28% | viability, T/C [8] 4.08% | viability, T/C (second compound 0.1 µM, first compound 0.0999 µM) 6.9% | viability, T/C [10] 3.94% | viability, T/C (second compound 0.316 µM, first compound 0.0999 µM) 8.66% | viability, T/C [12] 5.73% | viability, T/C (second compound 1 µM, first compound 0.0999 µM) 8.09% | viability, T/C [14] 7.14% | viability, T/C (second compound 3.16 µM, first compound 0.0999 µM) 11.3% | viability, T/C [16] 5.81% | viability, T/C (second compound 10 µM, first compound 0.0999 µM) 7.67% | viability, T/C [18] 5.22%
19.5 nM: IC50 [1]
